Test results as given in patent US20070049625A1, “EP2 receptor agonists for treating glaucoma” (Allergan, Inc., priority 2005, published 2007).

Assays:
Type in all cases: in vivo
[1] = tested on: Cynomolgus monkeys (Macaca fascicularis); assay: Intraocular pressure in laser-induced ocular hypertensive monkeys; conditions: single topical dose, laser-treated ocular hypertensive eye, IOP at 2, 4, 6 and 24 hours
Description: Cynomolgus monkeys (Macaca fascicularis) were used for the intraocular pressure studies. Each animal was unilaterally laser-treated by circumferential laser photocoagulation to induce ocular hypertension in one eye. Conscious female animals were trained sit in custom design chairs and to accept applanation pneumatonometry. The drug was administered topically to one eye using a dropper bottle to deliver approximately a 35 μl volume, the other eye received vehicle (1% polysorbate 80 in 5 mM Tris HCl) as a control. Proparacaine at 0.25% was used for corneal anesthesia during tonometry. Intraocular pressure was determined just before drug administration and at 2, 4, 6, and 24 hours.

Beagle dogs [2] = assay: Ocular surface hyperemia grading in dogs; conditions: topical to one eye, dosing over a 5 day period; 5 point scale 0=none, 0.5=trace, 1=mild, 2=moderate, 3=severe
Description: (§1) Measurement of intraocular pressure studies in dogs involved applanation pneumatonometry performed in Beagle dogs of both sexes. The animals remained conscious throughout the study and were gently restrained by hand. The drug was administered topically to one eye using a dropper bottle to deliver approximately a 35 μl volume, the other eye received vehicle (1% polysorbate 80 in 5 mM Tris HCI) as a control. Proparacaine at 0.25% was used for corneal anesthesia during tonometry. Intraocular pressure was determined just before drug administration and at 2, 4, 6 hours thereafter on each day of the 5 day study. Measurement of ocular surface hyperemia was performed immediately before each of the intraocular pressure readings. Ocular surface hyperemia grading was semi-quantitative and assessed according to a 5 point scoring scale used for clinical evaluations: 0=none; 0.5=trace; 1=mild; 2=moderate; and 3=severe.

Beagle dogs [3] = assay: Intraocular pressure in conscious dogs by applanation pneumatonometry; conditions: topical to one eye, single daily dose over a 5 day period; IOP before and 2, 4, 6 hours after dosing; vehicle in other eye
Description: as §1

| SMILES | effect on the IOP of monkeys ([1]; 0.01% w/v solution) | effect on the IOP of monkeys ([1]; 0.03% w/v solution) | effect on the IOP of monkeys ([1]; 0.1% w/v solution) | ocular surface hyperemia of dogs (Beagle dogs [2]) | effect on the IOP of dogs (Beagle dogs [3]) |
| --- | --- | --- | --- | --- | --- |
| CC(C)(C)c1ccc(CN(Cc2cccc(OCC(=O)O)c2)S(=O)(=O)c2cccnc2)cc1 [(3-{[(4-tert-butyl-benzyl)-(pyridine-3-sulfonyl)-amino]-methyl}-phenoxy)-acetic acid] | lowers the elevated IOP over 24 hours | lowers the elevated IOP over 24 hours, almost to the level of the control normotensive eye | lowers the elevated IOP over 24 hours, almost to the level of the control normotensive eye | mild ocular surface hyperemia that diminishes over time | effective for reducing IOP of the dogs |
| CC(C)OC(=O)COc1cccc(CN(Cc2ccc(C(C)(C)C)cc2)S(=O)(=O)c2cccnc2)c1 [(3-{[(4-tert-butyl-benzyl)-(pyridine-3-sulfonyl)-amino]-methyl}-phenoxy)-acetic acid; isopropyl ester] |  |  | lowers the elevated IOP over 24 hours almost to the level of the control normotensive eye | minimal ocular surface hyperemia | effective for reducing IOP of the dogs |
